Assay results: patent US20060122282A1, “METHOD FOR TREATING SKIN DISORDERS WITH XANTHOPHYLLS” (priority 2004, published 2006)

Assay: blister healing of the skin (blisters raised, roofs cut off)
Type: in vivo, human
Settings: topical application before raising the blister; alone or in combination with xanthophylls
Description: Experiments have been performed wherein blisters have been raised and the roofs cut off of the skins of individuals of various ages.

CC1=C(/C=C/C(C)=C/C=C/C(C)=C/C(=O)O)C(C)(C)CCC1 [tretinoin, all-trans retinoic acid]
healing time of blisters: halves
